Laboratory results from US12673055B2, “Treatment of atopic dermatitis with tradipitant” (Vanda Pharmaceuticals Inc., priority 2020, dated 2026).

Tested on: atopic dermatitis (AD) patients with severe pruritus
Experiment: EPIONE randomized, placebo-controlled phase III study
Type: in vivo, human
Set-up: key to WI-NRS Adjusting for IGA Severity / WI-NRS (change) / Diary WI-NRS: change from baseline in WI-NRS itch score
Experimental: A randomized, placebo-controlled phase III study is conducted in atopic dermatitis (AD) patients with severe pruritus with a range of disease severity presentation from mild (23%) to moderate (64%) and severe (13%) as determined by the Investigator's Global Assessment scale (IGA). In the study, patients (n=341) are randomized 1:1 to receive either tradipitant or placebo for a treatment period of eight (8) weeks. Patients in the tradipitant arm of the study are dosed with 85 mg tradipitant twice daily (bid). Patients are assessed at baseline and post-randomization with a number of symptomatic and disease severity scales at regular intervals.
A significant interaction is observed between baseline disease severity and treatment (p=0.0004), where disease severity is measured by Investigator's Global Assessment (IGA) on a scale of 1-4.
Similar effects are seen throughout the treatment periods at all post-randomization visits comprising weeks 2, 4, 6 and 8 (Table 1).

[1] = mild AD (n = 79), 85 mg bid, Week 8

`O=C(c1ccccc1Cl)c1cccnc1-c1nnn(Cc2cc(C(F)(F)F)cc(C(F)(F)F)c2)c1-c1ccncc1` [Tradipitant] was tested, and the “WI-NRS (change)” value (IGA 1, 2 (mild AD, n = 79), Tradipitant n = 40, 85 mg bid, Week 2) was −2.59, the “WI-NRS (change)” value (IGA 1, 2 (mild AD, n = 79), Tradipitant n = 40, 85 mg bid, Week 4) was −3.39 and the “WI-NRS (change)” value (IGA 1, 2 (mild AD, n = 79), Tradipitant n = 40, 85 mg bid, Week 6) was −4.18. The “WI-NRS (change)” value (IGA 1, 2 (mild AD, n = 79), Tradipitant n = 40, 85 mg bid, Week 8) was −4.74, the “Diary WI-NRS” value (IGA 1, 2 (n = 79), 85 mg bid, Week 2) was −1.54 and the “Diary WI-NRS” value (IGA 1, 2 (n = 79), 85 mg bid, Week 4) was −2.78. The “Diary WI-NRS” value (IGA 1, 2 (n = 79), 85 mg bid, Week 6) was −3.48, the “Diary WI-NRS” value (IGA 1, 2 (n = 79), 85 mg bid, Week 8) was −4.23 and the “Diary WI-NRS Diff (tradipitant vs placebo)” value (IGA 1, 2 (n = 79), Week 2) was 1.18. The “WI-NRS Diff (tradipitant vs placebo)” value (IGA 1, 2 (n = 79), Week 2) was 1.61, the “Diary WI-NRS Diff (tradipitant vs placebo)” value (IGA 1, 2 (n = 79), Week 4) was 1.71 and the “WI-NRS Diff (tradipitant vs placebo)” value (IGA 1, 2 (n = 79), Week 4) was 1.92. For the same molecule, the “Diary WI-NRS Diff (tradipitant vs placebo)” value (IGA 1, 2 (n = 79), Week 6) was 1.76, the “WI-NRS Diff (tradipitant vs placebo)” value (IGA 1, 2 (n = 79), Week 6) was 1.86 and the “Diary WI-NRS Diff (tradipitant vs placebo)” value (IGA 1, 2 (n = 79), Week 8) was 2.09. For the same molecule, the “WI-NRS Diff (tradipitant vs placebo)” value (IGA 1, 2 (n = 79), Week 8) was 1.60, the “WI-NRS Adjusting for IGA Severity” value (ITT (n = 341), 85 mg bid, Week 2) was −2.43 and the “WI-NRS Adjusting for IGA Severity” value (ITT (n = 341), 85 mg bid, Week 4) was −3.34. The “WI-NRS Adjusting for IGA Severity” value (ITT (n = 341), 85 mg bid, Week 6) was −3.75, the “WI-NRS Adjusting for IGA Severity” value (ITT (n = 341), 85 mg bid, Week 8) was −4.36 and the “WI-NRS (change)” value (ITT (n = 341), Tradipitant n = 171, 85 mg bid, Week 2) was −1.68. For the same molecule, the “WI-NRS (change)” value (ITT (n = 341), Tradipitant n = 171, 85 mg bid, Week 4) was −2.58, the “WI-NRS (change)” value (ITT (n = 341), Tradipitant n = 171, 85 mg bid, Week 6) was −3.00 and the “WI-NRS (change)” value (ITT (n = 341), Tradipitant n = 171, 85 mg bid, Week 8) was −3.61. The “WI-NRS Adjusting for IGA Severity, Diff (tradipitant vs placebo)” value (“WI-NRS Adjusting … (tradipitant vs placebo)” for short) (ITT (n = 341), Week 2) was 1.14, the “WI-NRS Diff (tradipitant vs placebo)” value (ITT (n = 341), Week 2) was 0.23 and the “WI-NRS Adjusting … (tradipitant vs placebo)” value (ITT (n = 341), Week 4) was 1.29. For the same molecule, the “WI-NRS Diff (tradipitant vs placebo)” value (ITT (n = 341), Week 4) was 0.39, the “WI-NRS Adjusting … (tradipitant vs placebo)” value (ITT (n = 341), Week 6) was 1.01 and the “WI-NRS Diff (tradipitant vs placebo)” value (ITT (n = 341), Week 6) was 0.11. The “WI-NRS Adjusting … (tradipitant vs placebo)” value (ITT (n = 341), Week 8) was 1.08, the “WI-NRS Diff (tradipitant vs placebo)” value (ITT (n = 341), Week 8) was 0.18 and the “magnitude of improvement in pruritus (WI-NRS) compared with placebo” value (full population, week 8, difference not statistically significant) was “greater than that of placebo”. The “improvement in WI-NRS compared to placebo, accounting for baseline disease severity and treatment interaction” value (full trial population, week 8, p=0.0217) was “significantly larger improvement”, the safety profile (in vivo) was “relatively safe profile” and the “WI-NRS over placebo in the mild AD group” value (mild AD (IGA 1, 2), every visit) was “significantly improves WI-NRS over placebo at every visit”. For the same molecule, the “Responder Analysis: IGA 0 or 1” value [1] was 60.0%, the “Responder Analysis: SCORAD 50% Improvement” value [1] was 55.0% and the “Responder Analysis: IGA 0 or 1, Diff (tradipitant vs placebo)” value (mild AD (n = 79), Week 8) was 21.5%. The “Responder Analysis: SCORAD 50% Improvement, Diff (tradipitant vs placebo)” value (mild AD (n = 79), Week 8) was 24.2%, the “Responder Analysis: WI-NRS ≥4 Improvement, Diff (tradipitant vs placebo)” value (mild AD (n = 79), Week 8) was 39.2% and the “time course of response: onset of antipruritic effect” value (mild AD patients, daily diary) was “immediately after the first full day of tradipitant dosing”. For the same molecule, the “Responder Analysis: WI-NRS ≥4 Improvement” value (mild AD, IGA 1, 2 (n = 79), 85 mg bid, Week 8) was 72.5%.
